“Also recorded” adds a separate entry of the source.
Columns and labels:
[1] = target: T1, guinea pig liver TG2 (UniProt P08587); test: IGFBP-3 kinase activity of purified guinea pig liver TG2; assay type: biochemical; settings: cystamine 20 μM, MDC 200 μM (FIG. 4A)
T1 construct: Both TG2 purified from guinea pig liver and recombinant human TG2 expressed in insect cells were able to phosphorylate IGFBP-3; purchased Sigma-Aldrich, MO; host or cells: guinea pig liver (tissue-purified)
T1 sequence (P08587 1-690): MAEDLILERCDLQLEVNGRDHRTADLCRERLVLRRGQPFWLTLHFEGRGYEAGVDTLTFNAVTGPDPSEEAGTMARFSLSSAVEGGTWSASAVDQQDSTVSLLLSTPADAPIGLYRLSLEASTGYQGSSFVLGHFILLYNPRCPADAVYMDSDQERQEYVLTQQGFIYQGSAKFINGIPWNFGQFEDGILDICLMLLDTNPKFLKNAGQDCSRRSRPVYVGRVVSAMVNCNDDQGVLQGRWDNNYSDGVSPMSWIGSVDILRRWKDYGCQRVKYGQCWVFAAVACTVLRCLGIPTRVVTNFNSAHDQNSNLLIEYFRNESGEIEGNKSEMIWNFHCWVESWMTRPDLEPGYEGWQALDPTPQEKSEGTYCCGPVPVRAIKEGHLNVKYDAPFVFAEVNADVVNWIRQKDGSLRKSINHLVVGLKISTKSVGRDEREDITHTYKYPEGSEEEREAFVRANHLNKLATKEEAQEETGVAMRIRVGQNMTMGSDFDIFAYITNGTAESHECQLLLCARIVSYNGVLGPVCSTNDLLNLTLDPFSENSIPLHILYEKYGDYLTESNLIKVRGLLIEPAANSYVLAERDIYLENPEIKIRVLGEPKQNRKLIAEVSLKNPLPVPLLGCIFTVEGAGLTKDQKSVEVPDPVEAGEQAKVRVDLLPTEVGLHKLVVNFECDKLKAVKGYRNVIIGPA
Protocol: (§1) Polystyrene tube were coated with streptavidin and blocked with bovine serum albumin, washed in saline and stored at −20° C. until used. Biotinylated IGFBP-3 (500 ng) was added in streptavidin-coated tubes for 2 h on ice. At the end of incubation, excess, unbound IGFBP-3 was removed. Tubes were placed on ice and phosphorylation reaction mixture containing 20 mM Tris buffered saline pH 7.5, 10 mM Mg/ATP, 60 μCi/ml ^32P-ATP was added. Reaction was initiated by the addition of membrane fraction and allowed to proceed for 30 min at 30° C. Reaction was stopped by addition of SDS-PAGE sample buffer, boiled for 7–10 min and analyzed on 11% gel. Subsequently gels were dried and processed for autoradiography. In some cases 2 μU of pure TG2 (Sigma-Aldrich, MO) or histidine-tagged full length human TG2 expressed using baculovirus expression system in insect cells and purified by Ni(II)-nitroacetate agarose chromatography was used to phosphorylate IGFBP-3 in presence or absence of TG2 specific inhibitors. In experiments where cell monolayers were used to phosphorylate IGFBP-3, cells were grown in 24-well culture plate to near confluence and washed with PBS to remove residual media and serum. […] At the end of incubation, reaction mixture was aspirated, reaction was stopped by addition of sample buffer and analyzed on 11% gel. […]

[2] = test system: T47D cell membranes; test: Phosphorylation of IGFBP-3 by T47D cell membranes; assay type: biochemical, human; settings: cystamine 20 μM (10 and 20 μM in FIG. 2C), MDC 200 μM, ROCK2 inhibitor 2 and 5 μM (FIG. 2B, 2C)
Protocol: (§2) Polystyrene tube were coated with streptavidin and blocked with bovine serum albumin, washed in saline and stored at −20° C. until used. Biotinylated IGFBP-3 (500 ng) was added in streptavidin-coated tubes for 2 h on ice. At the end of incubation, excess, unbound IGFBP-3 was removed. Tubes were placed on ice and phosphorylation reaction mixture containing 20 mM Tris buffered saline pH 7.5, 10 mM Mg/ATP, 60 μCi/ml ^32P-ATP was added. Reaction was initiated by the addition of membrane fraction and allowed to proceed for 30 min at 30° C. Reaction was stopped by addition of SDS-PAGE sample buffer, boiled for 7–10 min and analyzed on 11% gel. Subsequently gels were dried and processed for autoradiography. In some cases 2 μU of pure TG2 (Sigma-Aldrich, MO) or histidine-tagged full length human TG2 expressed using baculovirus expression system in insect cells and purified by Ni(II)-nitroacetate agarose chromatography was used to phosphorylate IGFBP-3 in presence or absence of TG2 specific inhibitors. In experiments where cell monolayers were used to phosphorylate IGFBP-3, cells were grown in 24-well culture plate to near confluence and washed with PBS to remove residual media and serum. Phosphorylation was then performed in […] reaction mixture as above, containing 1 μg IGFBP-3 for 10 min at 37° C. At the end of incubation, reaction mixture was aspirated, reaction was stopped by addition of sample buffer and analyzed on 11% gel. In some experiments, cell monolayer were treated with TG2 inhibitor for 30 min prior to the phosphorylation reaction.
We assessed the effect of the TG2 and ROCK2 inhibitors on phosphorylation of IGFBP-3 by cell monolayers. We have previously shown that intact washed cells were able to phosphorylate IGFBP-3 immobilized on polystyrene tubes (Mishra and Murphy, 2003). T47D cell monolayers were incubated for 30 minutes in the presence of various concentrations of cystamine, an inhibitor of TG2. The washed cell monolayers were incubated with IGFBP-3 in the presence of ^32P-ATP for 10 minutes at 37° C. After termination of the incubation, the IGFBP-3 was analyzed by SDS-PAGE and autoradiography (FIG. 2A). […] Similar experiments were undertaken utilizing membrane preparations from both T47D and MCF-7 cells. As reported previously both T47D and MCF-7 cells were able to phosphorylate IGFBP-3. This process was inhibited by cystamine and MDC in both cells lines (FIG. 2B). DMSO the vehicle in which MDC was dissolved had no effect. Since TG2 has been found in association with ROCK2, a Rho-kinase (Singh et al., 2001, EMBO J., 20:2413–2423), and ROCK2 was present in the affinity purified cell membrane fractions, we investigated the effect of the ROCK2 inhibitor, R (+)trans-N-(4-pyridyl)-4-(1aminoethyl)-cyclohexanecarboxamide dihydrochloride. […]

[3] = target: T2, TG2 (Homo sapiens, UniProt P21980); test: IGFBP-3 kinase activity of recombinant human TG2; assay type: biochemical; design: histidine-tagged full length human TG2 expressed using baculovirus expression system in insect cells; histidine tag; made in house; host or cells: insect cells (baculovirus expression system); settings: for effect on phosphorylation of IGFBP-3 by human recombinant TG2: cystamine 20 μM, MDC 200 μM (FIG. 4A)
T2 sequence (P21980 1-687): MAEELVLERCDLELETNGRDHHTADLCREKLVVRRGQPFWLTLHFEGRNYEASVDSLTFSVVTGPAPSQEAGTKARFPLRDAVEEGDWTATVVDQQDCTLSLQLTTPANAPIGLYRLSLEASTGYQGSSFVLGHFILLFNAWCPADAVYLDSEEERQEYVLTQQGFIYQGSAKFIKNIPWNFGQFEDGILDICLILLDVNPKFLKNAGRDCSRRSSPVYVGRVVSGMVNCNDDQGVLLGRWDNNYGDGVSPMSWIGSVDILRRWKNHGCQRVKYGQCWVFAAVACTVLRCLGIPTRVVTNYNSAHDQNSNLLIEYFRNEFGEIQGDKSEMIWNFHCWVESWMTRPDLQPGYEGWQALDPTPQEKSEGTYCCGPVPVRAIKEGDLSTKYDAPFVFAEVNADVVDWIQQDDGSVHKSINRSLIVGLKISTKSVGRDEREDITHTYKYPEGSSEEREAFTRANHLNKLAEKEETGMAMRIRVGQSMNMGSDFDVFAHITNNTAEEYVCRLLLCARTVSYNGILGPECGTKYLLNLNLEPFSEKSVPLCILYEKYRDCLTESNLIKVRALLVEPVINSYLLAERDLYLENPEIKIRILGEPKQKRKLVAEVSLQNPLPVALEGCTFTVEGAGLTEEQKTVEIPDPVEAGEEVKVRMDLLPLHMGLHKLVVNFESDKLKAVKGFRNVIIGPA
Protocol: as §2
Purified guinea pig liver TG2 and human recombinant TG2 both were able to phosphorylate IGFBP-3 (FIG. 4A). This process was inhibited cystamine and MDC. The related binding protein IGFBP-5 was also phosphorylated by TG2 whereas IGFBP-1 was not phosphorylated by TG2 (FIG. 4B). […] Fibronectin, another reported substrate for TG2 (Akimov and Belkin, 2001, J. Cell Sci., 114:2989–3000), was not phosphorylated by this enzyme under the conditions we used to phosphorylate IGFBP-3 (FIG. 4B). […]

[4] = test system: MCF-7 cell membranes; test: Phosphorylation of IGFBP-3 by MCF-7 cell membranes; assay type: biochemical, human; settings: cystamine 20 μM, MDC 200 μM (FIG. 2B)
Protocol: as §1, with “inhibitors.” for “inhibitors. In experiments where cell monolayers were used to phosphorylate IGFBP-3, cells were grown in 24-well culture plate to near confluence and washed with PBS to remove residual media and serum.”
We assessed the effect of the TG2 and ROCK2 inhibitors on phosphorylation of IGFBP-3 by cell monolayers. […] After termination of the incubation, the IGFBP-3 was analyzed by SDS-PAGE and autoradiography (FIG. 2A). […]

[5] = target: T2, TG2; test: Cross-linking activity of recombinant TG2 (polymerization of IGFBP-3); assay type: biochemical; design: histidine-tagged full length human TG2 expressed using baculovirus expression system in insect cells; histidine tag; made in house; host or cells: insect cells (baculovirus expression system); settings: recombinant TG2, increasing calcium concentration (FIG. 4C)
[6] = test system: T47D cell monolayers; test: Phosphorylation of IGFBP-3 by T47D cell monolayers; assay type: cell-based, human
Protocol: as §2
We assessed the effect of the TG2 and ROCK2 inhibitors on phosphorylation of IGFBP-3 by cell monolayers. We have previously shown that intact washed cells were able to phosphorylate IGFBP-3 immobilized on polystyrene tubes (Mishra and Murphy, 2003). T47D cell monolayers were incubated for 30 minutes in the presence of various concentrations of cystamine, an inhibitor of TG2. […] After termination of the incubation, the IGFBP-3 was analyzed by SDS-PAGE and autoradiography (FIG. 2A). […]

[7] = target: T2, TG2; test: IGFBP-3 kinase activity of anti-TG2 immunoprecipitates from solubilized membranes; assay type: biochemical; design: endogenous in cells; host or cells: T47D or MCF-7 cell membranes (anti-TG2 immunoprecipitate on protein A-agarose); settings: cystamine 20 μM, ROCK2 inhibitor 5 μM (FIG. 3C)
Protocol: To 200 μl of solubilized membranes from T47D of MCF-7 cells, 10 μl of anti-TG2 goat polyclonal antiserum (Upstate Biotechnology, Lake Placid, N.Y.) and incubated for 1 h at 4° C. 20 μl of protein A-agarose (Pierce) was added and further incubated on a rotating device overnight at 4° C. At the end of incubation the pellet was washed four times in ice cold PBS. The supernatant was discarded and the pellet was resuspended in 50 μl of kinase buffer. 10 μl of the resuspended sample was used for phosphorylation of 500 ng of IGFBP-3. The samples were analyzed by SDS-PAGE, autoradiography and immunoblotting with TG2 antiserum.
We next examined the effect of TG2 and ROCK2 antisera on IGFBP-3 kinase activity present in cell membrane preparations. Antiserum against TG2 but not ROCK2 antiserum was able to immunodeplete IGFBP-3 kinase activity from membrane preparations (FIG. 3A). When the immunoprecipitates were analyzed for kinase activity, the precipitates obtained with TG2 antiserum but not those obtained with ROCK2 antiserum had kinase activity. Furthermore, the IGFBP-3 kinase activity present in the immunoprecipitates was inhibited by cystamine but not by the ROCK2 inhibitor.

[8] = T47D cell monolayers pre-incubated 30 minutes with inhibitor, 32P-ATP, 10 minutes at 37° C., autoradiography (FIG. 2A)

| Structure (SMILES) | effect on phosphorylation of IGFBP-3 by purified guinea pig liver TG2 [1] | effect on phosphorylation of IGFBP-3 by T47D cell membranes [2] | effect on phosphorylation of IGFBP-3 by T47D cell membranes ([2]; listed as monodansyl cadaverine) | effect on phosphorylation of IGFBP-3 by human recombinant TG2 [3] | effect on phosphorylation of IGFBP-3 by MCF-7 cell membranes [4] | effect of increasing calcium concentration on kinase activity of TG2 ([3]; recombinant TG2, increasing calcium concentration (FIG. 4C)) | effect of increasing calcium concentration on polymerization of IGFBP-3 (cross-linking activity of TG2) [5] | effect on IGFBP-3 kinase activity of breast cancer cell monolayers ([6]; breast cancer cell monolayers (FIG. 2A)) | effect on IGFBP-3 kinase activity present in anti-TG2 immunoprecipitates [7] | concentration at which complete inhibition of IGFBP-3 phosphorylation was apparent [6, 8] | concentration at which inhibition of IGFBP-3 phosphorylation was seen (as little as) [6, 8] |
| --- | --- | --- | --- | --- | --- | --- | --- | --- | --- | --- | --- |
| CN(C)c1cccc2c(S(=O)(=O)NCCCCCN)cccc12 [MDC, monodansyl cadaverine] | inhibited | inhibited | abolished | inhibited | inhibited | – | – | – | – | – | – |
| [Ca+2] [calcium] | – | – | – | – | – | decrease in the kinase activity; also recorded: inhibited in a concentration dependent fashion | increase in polymerization | – | – | – | – |
| C[C@@H](N)[C@H]1CC[C@H](C(=O)Nc2ccncc2)CC1.Cl.Cl (relative stereo) [ROCK2 inhibitor, R (+)trans-N-(4-pyridyl)-4-(1aminoethyl)-cyclohexanecarboxamide dihydrochloride] | – | no effect | – | – | – | – | – | no effect | not | – | – |
| NCCSSCCN [cystamine] | inhibited | inhibited; also recorded: abolished | – | inhibited | inhibited | – | – | – | inhibited | 50 µM | 20 µM |

Source: patent US7090971B2, “Transglutaminase has intrinsic kinase activity” (priority 2004, dated 2006)
